Data published in ChEMBL document CHEMBL1136705, “Analogues of dealanylalahopcin are inhibitors of human HIF prolyl hydroxylases” (Bioorg Med Chem Lett, 2003).

Target: Prolyl hydroxylase EGLN2 (Homo sapiens, UniProt Q96KS0)
Assay: Inhibitory activity against purified fusion of maltose binding with PHD1 as enzyme and […]

Prolyl hydroxylase EGLN2, sequence (Q96KS0 whole entry, the tested form may be a part): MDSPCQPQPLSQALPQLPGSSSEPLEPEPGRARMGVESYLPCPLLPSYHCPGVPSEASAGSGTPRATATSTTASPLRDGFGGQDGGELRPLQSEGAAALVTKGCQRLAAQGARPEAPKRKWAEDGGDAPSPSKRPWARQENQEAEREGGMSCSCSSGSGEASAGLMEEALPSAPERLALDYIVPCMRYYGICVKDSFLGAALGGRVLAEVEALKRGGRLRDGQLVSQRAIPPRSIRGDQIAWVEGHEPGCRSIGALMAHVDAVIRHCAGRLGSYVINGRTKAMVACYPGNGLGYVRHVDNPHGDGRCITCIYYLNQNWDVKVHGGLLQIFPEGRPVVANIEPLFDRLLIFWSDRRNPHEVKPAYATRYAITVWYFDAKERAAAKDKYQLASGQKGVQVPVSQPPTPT

Question: Which IC50 does the source give for `O=C(O)CC1CC(=O)N(O)C1=O` (racemic) here?
Answer: The IC50 was 1000 µM.
